Measurements from patent US20230202973A1, “BARNESIN A, DERIVATIVES AND USES THEREOF” (Leibniz-Institut Für Naturstoff-Forschung Und …, priority 2018, published 2023).
Like-named read-outs stand apart in the source and are kept apart here. Square brackets hold non-standard residues; d marks the D form. Peptide text beside a SMILES is read from it. * marks the point of attachment. Isovaleryl = CC(C)CC(=O)*

Tests used:
Cathepsin B [1] = molecular target: T1, Cathepsin B (Homo sapiens, UniProt P07858); details: reported in literature; cells printed in nM; read-out: Cathepsin B, reported inhibitory activity as IC50 value; cited from earlier work
papain [2] = molecular target: T2, papain (Carica papaya, UniProt P00784); details: reported in literature for known compounds; read-out: Papain, reported inhibitory activity as IC50 value; cited from earlier work
T2 construct: purchased Sigma-Aldrich P4762
T2 sequence (P00784 134-345): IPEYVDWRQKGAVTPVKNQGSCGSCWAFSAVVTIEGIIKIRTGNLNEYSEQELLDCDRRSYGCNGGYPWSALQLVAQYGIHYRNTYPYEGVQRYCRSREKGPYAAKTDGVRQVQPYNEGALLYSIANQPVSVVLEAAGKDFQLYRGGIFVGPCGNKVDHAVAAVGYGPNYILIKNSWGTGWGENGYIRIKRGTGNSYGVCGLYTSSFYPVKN

Cathepsin B [3] = molecular target: T1, Cathepsin B; assay: Activity test against cathepsin B (initial screen, Table 5); type: biochemical; parameters: dose or concentration left out as unconfirmed
Procedure: (§1) Activity Tests Against Cathepsin B, Cathepsin L and Rhodesain.
(§2) The determination of the activity of the inhibitors against hCatL and RD was performed in fluorescence-based assays in accordance with the assays described in Giroud et al., ChemMedChem 12 (2017), 257-270 and Schirmeister, Bioorganic & Medicinal Chemistry Letters 27 (2017) 45-50. The biological activities against hCatL were determined using Cbz-Phe-Arg-AMC as substrate, which releases AMC (7-amino-4-methylcoumarin) after amide bond cleavage by the enzyme. The proteolytic activity of the enzyme can be monitored spectrophotometrically by the increase of fluorescence intensity by release of AMC (emission at 460 nm) upon hydrolysis. An initial screen at an inhibitor concentration […] was performed to identify ligands with an inhibition of hCatL and RD higher than 80%.

hCatL = hCatL (Homo sapiens, UniProt P07711); assay: Fluorescence-based activity test against cathepsin L (Cbz-Phe-Arg-AMC); type: biochemical; parameters: dose or concentration left out as unconfirmed
Chain of hCatL (P07711 114-333): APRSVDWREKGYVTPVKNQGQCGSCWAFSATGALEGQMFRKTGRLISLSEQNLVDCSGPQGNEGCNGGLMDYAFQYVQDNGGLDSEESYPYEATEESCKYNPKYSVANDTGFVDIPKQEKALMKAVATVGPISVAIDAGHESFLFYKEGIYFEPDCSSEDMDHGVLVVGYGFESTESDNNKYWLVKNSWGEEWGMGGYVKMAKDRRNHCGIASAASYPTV
Procedure: as §1, §2

Rhodesain = Rhodesain (Trypanosoma brucei rhodesiense, UniProt Q95PM0); assay: Fluorescence-based activity test against rhodesain; type: biochemical; details: initial screen at an inhibitor concentration of 20 mM; ni = no inhibition
Chain of Rhodesain (Q95PM0 entry or part of it): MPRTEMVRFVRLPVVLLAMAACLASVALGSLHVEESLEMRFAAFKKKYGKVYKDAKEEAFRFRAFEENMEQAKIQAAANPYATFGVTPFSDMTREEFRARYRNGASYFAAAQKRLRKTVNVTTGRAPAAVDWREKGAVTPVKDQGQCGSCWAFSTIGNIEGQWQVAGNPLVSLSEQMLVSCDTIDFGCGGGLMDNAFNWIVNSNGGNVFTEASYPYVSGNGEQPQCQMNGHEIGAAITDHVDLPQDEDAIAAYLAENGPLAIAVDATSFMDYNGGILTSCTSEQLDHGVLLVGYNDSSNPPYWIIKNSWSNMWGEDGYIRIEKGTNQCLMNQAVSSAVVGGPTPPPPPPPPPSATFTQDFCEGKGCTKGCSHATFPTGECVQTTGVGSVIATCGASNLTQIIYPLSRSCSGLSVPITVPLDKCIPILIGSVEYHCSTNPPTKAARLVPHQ
Procedure: as §1
Rhodesain is a central cysteine protease from Trypanosoma brucei rhodesiense and a potential drug target against human African trypanosomiasis (sleeping sickness).
as §2

papain [4] = molecular target: T2, papain; assay: Protease assay with azocasein: papain; type: biochemical; details: azocasein substrate, pH 7.2, n.i. = no inhibition; for IC50: read-out: Papain, inhibitory activity as IC50 value
Procedure: (§3) Protease Assays with azocasein: Protease inhibition assays against the proteases papain, ficin, trypsin, pepsin and thermolysin were performed according to the protocol of Garcia-Carreño (loc. cit.) in a reaction buffer containing 25 mM TRIS-HCl, 0.15 M NaCl, pH 7.2 (or pH 3.5 for aspartic protease). The total assay volume was 47 μL buffer with 2 μL of the protease as well as 1 μL of suitable inhibitor or corresponding inhibitor solvent (100% MeoH or water). Final concentration of proteases was as follows: 2 mg/mL for papain (Sigma-Aldrich, P4762), 600 μg/mL for ficin (Sigma-Aldrich, F6008), 80 μg/mL for trypsin (Thermo Fisher, 23266), 60 mg/mL for pepsin (Sigma-Aldrich P6887)) and 2 μg/mL for thermolysin (Sigma-Aldrich, P1512).
(§4) Inhibitors were dissolved in 100% MeOH or water and added to the assay (1 μL); final concentration: 2% MeOH. Samples of control inhibitors were prepared as follows: (1) serine protease (trypsin): PMFS (2 mM) and soybean trypsin inhibitor (240 μM) (Sigma-Aldrich, T1021), (2) cysteine proteases (papain and ficin): iodacetamide (2 mM), (3) […] (pepsin): pepstatin A (1 μg/mL) (Sigma-Aldrich, P4265), (4) metalloprotease (thermolysin): EDTA (10 mM). […] Negative controls were performed with protease alone (without inhibitor) and MeOH at a final concentration of 2% (reference for activity of 100%). Extract absorbance controls were performed using inhibitor (1 μL in MeOH) without protease. Blanks were performed using 49 μL buffer and 1 μL MeOH.
(§5) Samples were incubated with buffer and suitable inhibitor (or without for negative controls) for 1 h at r.t. and the reaction was started afterward by adding 50 μl of […] substrate and incubated for 1 h at 37° C. After stopping the reaction with trichloracetic acid (TCA), the separation of the precipitate was accomplished by centrifugation at 6500 g for 5 min. The hydrolyzed substrate supernatant was incubated in an equal volume of 0.5 N NaOH for 5 min and the absorbance was measured at 440 nm. OD values of the protease control without inhibitor were used as reference for a 100% activity.
(§6) The log IC50 values were determined using the standard curves analyzing tool with four parameter logistic equation of SigmaPlot12 with technical triplicates. Propagation of error was calculated using the standard error and log IC50 values where the equation of error propagation is defined as Δy=0.43Δx/x.

ficin = assay: Protease assay with azocasein: ficin; type: biochemical; details: azocasein substrate, pH 7.2, n.i. = no inhibition; for IC50: read-out: Ficin, inhibitory activity as IC50 value
Procedure: as §3, §4, §5, §6

Cathepsin B [5] = molecular target: T1, Cathepsin B; assay: Cathepsin B inhibition assay (Z-Arg-Arg-AMC); type: biochemical; details: Z-Arg-Arg-AMC substrate, pH 6.0, n.i. = no inhibition; for IC50: read-out: Cathepsin B, inhibitory activity as IC50 value
Procedure: Cathepsin B inhibition assay. Cathepsin B inhibition assay was determined according to Hiwasa et al. (loc. cit.) with minor changes. Cathepsin B was purchased from Sigma Aldrich (C0150) and stored in 50 mM sodium acetate, 1 mM EDTA, pH 5 (adjusted with acetic acid). Cathepsin B was activated by preincubation at 40° C. for 10 min in assay buffer (0.1 M sodium acetate 1.3 mM EDTA, pH 6.0 adjusted with acetic acid, 2 μM DTT, 2.6 mM cysteine and 0.05% Triton X100). […] Final concentration of cathepsin B was 0.1 mg/ml. […] After stopping the reaction with 85 μL buffer containing 100 mM sodium monochlor acetate, 30 mM sodium acetate, 70 mM acetic acid, the hydrolyzed substrate was detected at an excitation wavelength of 380 nm and a fluorescence wavelength of 450 nm, using a fluorophotometer. 1 μL of 1.5 mM leupeptin was used as enzyme inhibition control.

trypsin = molecular target: T3, trypsin (Bos taurus, UniProt P00760); assay: Protease assay with azocasein: trypsin; type: biochemical; details: azocasein substrate, pH 7.2; n.i. = no inhibition
T3 construct: purchased Thermo Fisher 23266
T3 sequence (P00760 24-246): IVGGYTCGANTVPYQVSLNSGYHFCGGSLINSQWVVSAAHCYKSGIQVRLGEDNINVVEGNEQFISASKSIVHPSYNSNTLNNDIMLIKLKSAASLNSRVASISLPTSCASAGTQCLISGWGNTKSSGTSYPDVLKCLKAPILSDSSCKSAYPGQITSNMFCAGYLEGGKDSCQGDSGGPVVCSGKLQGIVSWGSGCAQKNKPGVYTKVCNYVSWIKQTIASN
Procedure: as §3, §4, §5, §6

pepsin = molecular target: T4, pepsin (Sus scrofa, UniProt P00791); assay: Protease assay with azocasein: pepsin; type: biochemical; details: azocasein substrate, pH 3.5; n.i. = no inhibition
T4 construct: purchased Sigma-Aldrich P6887
T4 sequence (P00791 60-385): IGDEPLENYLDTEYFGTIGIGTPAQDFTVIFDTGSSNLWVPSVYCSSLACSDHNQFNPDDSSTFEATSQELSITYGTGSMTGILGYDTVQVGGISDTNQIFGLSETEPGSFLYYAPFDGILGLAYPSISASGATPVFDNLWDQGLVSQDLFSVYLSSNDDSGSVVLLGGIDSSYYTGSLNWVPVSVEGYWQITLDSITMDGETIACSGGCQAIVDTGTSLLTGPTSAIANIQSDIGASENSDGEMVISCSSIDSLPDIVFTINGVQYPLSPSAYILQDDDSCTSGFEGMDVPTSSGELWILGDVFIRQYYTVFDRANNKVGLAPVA
Procedure: as §3, §4, §5, §6

thermolysin = molecular target: T5, thermolysin (Bacillus thermoproteolyticus, UniProt P00800); assay: Protease assay with azocasein: thermolysin; type: biochemical; details: azocasein substrate, pH 7.2; n.i. = no inhibition
T5 construct: purchased Sigma-Aldrich P1512
T5 sequence (P00800 233-548): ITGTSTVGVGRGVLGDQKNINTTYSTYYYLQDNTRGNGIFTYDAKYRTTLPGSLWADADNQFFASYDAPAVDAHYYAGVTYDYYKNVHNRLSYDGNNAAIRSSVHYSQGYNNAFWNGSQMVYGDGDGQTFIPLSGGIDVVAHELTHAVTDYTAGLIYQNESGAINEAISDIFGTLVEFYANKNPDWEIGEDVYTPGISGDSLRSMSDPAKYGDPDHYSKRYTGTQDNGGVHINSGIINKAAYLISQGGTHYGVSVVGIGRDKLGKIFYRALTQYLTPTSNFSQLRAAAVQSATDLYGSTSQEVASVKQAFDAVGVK
Procedure: as §3, §4, §5, §6

[6] = molecular target: T6, papain (Sigma-Aldrich, P4762) (Carica papaya, UniProt P00784); assay: Protease assay with azocasein, papain; type: biochemical; details: 2 mM iodacetamide; read-out: inhibition of enzyme activity (control inhibitor), papain
T6 sequence (P00784 134-345): T2 sequence (P00784 134-345)
Procedure: (§7) Protease Assays with azocasein: Protease inhibition assays against the proteases papain, ficin, trypsin, pepsin and thermolysin were performed according to the protocol of Garcia-Carreño (loc. cit.) in a reaction buffer containing 25 mM TRIS-HCl, 0.15 M NaCl, pH 7.2 (or pH 3.5 for aspartic protease). The total assay volume was 47 μL buffer with 2 μL of the protease as well as 1 μL of suitable inhibitor or corresponding inhibitor solvent (100% MeoH or water). […]
(§8) Inhibitors were dissolved in 100% MeOH or water and added to the assay (1 μL); final concentration: 2% MeOH. […] Extract absorbance controls were performed using inhibitor (1 μL in MeOH) without protease. […]
(§9) Samples were incubated with buffer and suitable inhibitor (or without for negative controls) for 1 h at r.t. and the reaction was started afterward by adding 50 μl of […] substrate and incubated for 1 h at 37° C. […] The hydrolyzed substrate supernatant was incubated in an equal volume of 0.5 N NaOH for 5 min and the absorbance was measured at 440 nm. […]
as §6

[7] = test system: ficin (Sigma-Aldrich, F6008); assay: Protease assay with azocasein, ficin; type: biochemical; details: 2 mM iodacetamide
Procedure: as §7, §8, §9, §6

Compound	IC50 (papain [4]) [nM]	IC50 (ficin) [nM]	IC50 (Cathepsin B [5]) [nM]	Trypsin, inhibitory activity as IC50 value (trypsin)	Pepsin, inhibitory activity as IC50 value (pepsin)	Thermolysin, inhibitory activity as IC50 value (thermolysin)	further results
CC(C)[C@H](NC(=O)c1ccc(O)cc1)C(=O)N[C@H](C(=O)N[C@H](C=O)CCCNC(=N)N)C(C)C [Tokaramide A]	–	–	–	–	–	–	IC50 (Cathepsin B [1]): 62.4 nM
CC(C)CC(=O)N[C@H](Cc1ccc(O)cc1)C(=O)N[C@H](C(=O)N[C@@H](C=O)Cc1ccccc1)C(C)C [YM 51084] (Isovaleryl-[dY]-Val-[dF]-aldehyde)	–	–	–	–	–	–	IC50 (papain [2]): 2200 nM; IC50 (Cathepsin B [1]): 12 nM
CCCCC/C=C/C(=O)N[C@H](Cc1ccc(O)cc1)C(=O)N[C@H](/C=C/C(=O)O)CCCNC(=N)N [drawing 49]	–	–	–	–	–	–	inhibition (Cathepsin B [3]): 5%; inhibition (hCatL): 7%; Rhodesain (%) inhibition (Rhodesain): ni
CCCCCCCC(=O)N[C@@H](Cc1ccc(O)cc1)C(=O)N[C@H](/C=C/C(=O)O)CCCNC(=N)N [17,18-Dihydrobarnesin (4), 17,18-Dihydrobarnesin]	4780	1160	87.6	n.i.	n.i.	n.i.	–
CCCCC/C=C/C(=O)N[C@@H](Cc1ccc(O)cc1)C(=O)N[C@H](/C=C/C(=O)O)CCCNC(=N)N [Barnesin A (1), Barnesin A]	16000	3430	91.7	n.i.	n.i.	n.i.	–
CCCCC/C=C/C(=O)N[C@@H](Cc1ccc(O)cc1)C(=O)N[C@H](/C=C/C(=O)OCC)CCCN=C(N)N [Barnesin A ethyl ester (3), (E)-Oct-2-enoyl-tyrosine-vinylogous arginine ethyl ester]	2890	3430	24	n.i.	n.i.	n.i.	–
CCCCCCCC(=O)N[C@@H](Cc1ccc(O)cc1)C(=O)N[C@@H](CCCNC(=N)N)CCC(=O)OC [(S), 2,3-17,18-Tetrahydrobarnesin A methyl ester, reference compound]	–	–	–	n.i.	n.i.	n.i.	Papain, inhibitory activity as IC50 value (papain [4]): n.i.; Ficin, inhibitory activity as IC50 value (ficin): n.i.; Cathepsin B, inhibitory activity as IC50 value (Cathepsin B [5]): n.i.
NC(=O)CI [iodacetamide]	–	–	–	–	–	–	inhibition at 2000 µM [6]: > 95%; inhibition of enzyme activity (control inhibitor), ficin [7]: > 95%
